Structures can show the parent of a compound that is named as a salt. Where two headings read alike, the source gives them in different places.
Key:
[1] = target: T1, EGF receptor autophosphorylation in A431 human epidermoid carcinoma cells (Homo sapiens, UniProt P00533); assay: Inhibition of EGF-induced autophosphorylation in A431 epidermoid carcinoma cells; type: cell-based
T1 construct: endogenous in cells; host or cells: A431 human epidermoid carcinoma cells (ATCC)
Protocol: Cells were grown to 100% confluency in 100 mm Petrie dishes (Corning). After the cells were treated for 5 minutes with either EGF (epidermal growth factor), PDGF, or bFGF (basic fibroblast growth factor) (20 ng/ml) or 1 ml of conditioned media from MDA-MB-231 cells, the media was removed and the monolayer scraped into 1 ml of ice cold lysis buffer (50 mM Hepes, pH 7.5, 150 mM NaCl, 10% glycerol, 1% triton X-100, 1 mM EDTA, 1 mM EGTA, 10 mM sodium pyrophosphate, 30 mM p-nitrophenyl phosphate, 1 mM orthovanadate, 50 mM sodium fluoride, 1 mM phenylmethylsulfonylfluoride, 10 μg/ml of aprotinin, and 10 μg/ml of leupeptin). The lysate was transferred to a microfuge tube (small centrifuge that holds 1-2 ml plastic centrifuge tubes), allowed to sit on ice 15 minutes and centrifuged 5 minutes at 10,000×g. The supernatant was transferred to a clean microfuge tube and 5 μg of antibody was added to designated samples. The tubes were rotated for 2 hours at 4° C. after which 25 μl of protein A sepharose was added and then rotation continued for at least 2 more hours. The protein A separose was washed 5 times with 50 mM Hepes, pH 7.5, 150 mM NaCl, 10% glycerol and 0.02% sodium azide. […] The extract were transferred to a microfuge tube and heated to 100° C. for 5 minutes. […] Proteins in the gel were electrophoretically transferred to nitrocellulose and the membrane was washed once in 10 mM Tris buffer, pH 7.2, 150 mM NaCl, 0.01% Azide (TNA) and blocked overnight in TNA containing 5% bovine serum albumin and 1% ovalbumin (blocking buffer). The membrane was blotted for 2 hours with the primary antibody (1 μg/ml in blocking buffer) and then washed 2 times sequentially in TNA, TNA containing 0.05% Tween-20 and 0.05% Nonidet P-40 (commercially available detergent) and TNA.
(§1) Inhibition of EGF-Induced Autophosphorylation in A431 Epidermoid Carcinoma Cells and Conditioned Media-Induced Autophosphorylation in SK-BR-3 Breast Tumor Cells by Compounds of the Current Invention
The numbers to the left of gels indicate the positions of molecular weight standards in kiloDaltons.

[2] = system: erbB-2, 3, 4 autophosphorylation in SK-BR-3 breast tumor cells; assay: Inhibition of conditioned media-induced autophosphorylation in SK-BR-3 breast tumor cells; type: cell-based, human; settings: SK-BR-3 cells, read-out: SKBR-3 IC50
Protocol: Cells were grown to 100% confluency in 100 mm Petrie dishes (Corning). After the cells were treated for 5 minutes with either EGF (epidermal growth factor), PDGF, or bFGF (basic fibroblast growth factor) (20 ng/ml) or 1 ml of conditioned media from MDA-MB-231 cells, the media was removed and the monolayer scraped into 1 ml of ice cold lysis buffer (50 mM Hepes, pH 7.5, 150 mM NaCl, 10% glycerol, 1% triton X-100, 1 mM EDTA, 1 mM EGTA, 10 mM sodium pyrophosphate, 30 mM p-nitrophenyl phosphate, 1 mM orthovanadate, 50 mM sodium fluoride, 1 mM phenylmethylsulfonylfluoride, 10 μg/ml of aprotinin, and 10 μg/ml of leupeptin). The lysate was transferred to a microfuge tube (small centrifuge that holds 1-2 ml plastic centrifuge tubes), allowed to sit on ice 15 minutes and centrifuged 5 minutes at 10,000×g. The supernatant was transferred to a clean microfuge tube and 5 μg of antibody was added to designated samples. The tubes were rotated for 2 hours at 4° C. after which 25 μl of protein A sepharose was added and then rotation continued for at least 2 more hours. The protein A separose was washed 5 times with 50 mM Hepes, pH 7.5, 150 mM NaCl, 10% glycerol and 0.02% sodium azide. The precipitates were resuspended with 30 μl of Laemlli buffer (Laemmli, NATURE, […], pp. 680-685, 1970), heated to 100° C. for 5 minutes and centrifuged to obtain the supernatant. Whole cell extracts were made by scraping cells grown in the wells of 6 well plates into 0.2 ml of boiling Laemmli buffer. The extract were transferred to a microfuge tube and heated to 100° C. for 5 minutes. The entire supernatant from the immunoprecipitation or 35 μl of the whole cell extract was loaded onto a polyacrylamide gel (4-20%) and electrophoresis carried out by the method of Laemlli (Laemmli, 1970). Proteins in the gel were electrophoretically transferred to nitrocellulose and the membrane was washed once in 10 mM Tris buffer, pH 7.2, 150 mM NaCl, 0.01% Azide (TNA) and blocked overnight in TNA containing 5% bovine serum albumin and 1% ovalbumin (blocking buffer). The membrane was blotted for 2 hours with the primary antibody (1 μg/ml in blocking buffer) and then washed 2 times sequentially in TNA, TNA containing 0.05% Tween-20 and 0.05% Nonidet P-40 (commercially available detergent) and TNA. The membranes were then incubated for 2 hours in blocking buffer containing 0.1 μCi/ml of [^125I] protein A and then washed again as above. After the blots were dry they were loaded into a film cassette and exposed to X-AR X-ray film for 1-7 days. Protein A is a bacterial protein that specifically bonds certain IgG subtypes and is useful in binding to and isolating antibody-antigen complexes.
as §1

[3] = target: T2, Human EGF receptor tyrosine kinase (Homo sapiens, UniProt P00533); assay: EGF receptor tyrosine kinase inhibition (phosphorylation of PLC-gamma 1 derived peptide); type: biochemical
T2 construct: Human EGF receptor tyrosine kinase was isolated from A431 human epidermoid carcinoma cells which overexpress EGF receptor; endogenous in cells; host or cells: A431 human epidermoid carcinoma cells; purified on wheat germ agglutinin sepharose
Protocol: Purification of Epidermal Growth Factor Receptor Tyrosine Kinase—Human EGF receptor tyrosine kinase was isolated from A431 human epidermoid carcinoma cells which overexpress EGF receptor by the following methods. Cells were grown in roller bottles in 50% Delbuco's Modified Eagle and 50% HAM F-12 nutrient media (Gibco) containing 10% fetal calf serum. Approximately 10^9 cells were lysed in two volumes of buffer containing 20 mM 2-(4N-[2-hydroxyethyl]piperazin-1-yl)ethanesulfonic acid (hepes), pH 7.4, 5 mM ethylene glycol bis(2-aminoethyl ether) N,N,N′,N′-tetraacetic acid, 1% Triton X-100, 10% glycerol, 0.1 mM sodium orthovanadate, 5 mM sodium fluoride, 4 mM pyrophosphate, 4 mM benzamide, 1 mM dithiothreitol, 80 μg/mL aprotinin, 40 μg/mL leupeptin and 1 mM phenylmethylsulfonyl fluoride. After centrifugation at 25,000×g for 10 minutes, the supernatant was equilibrated for 2 h at 4° C. with 10 mL of wheat germ agglutinin sepharose that was previously equilibrated with 50 mM Hepes, 10% glycerol, 0.1% Triton X-100 and 150 mM NaCl, pH 7.5, (equilibration buffer). Contaminating proteins were washed from the resin with 1 M NaCl in equilibration buffer, and the enzyme was eluted with 0.5 M N-acetyl-1-D-glucosamine in equilibration buffer, followed by 1 mM urea. The enzyme was eluted with 0.1 mg/ml EGF.
The reaction was terminated by the addition of 2 mL of 75 mM phosphoric acid and passed through a 2.5 cm phosphocellulose filter disc to bind the peptide. The filter was washed five times with 75 mM phosphoric acid and placed in a vial along with 5 mL of scintillation fluid (Ready gel Beckman).

[4] = system: B104-1-1 NIH-3T3 mouse fibroblasts transfected by the neu oncogene; assay: Growth inhibition assay (antiproliferative), B104-1-1; type: cell-based; settings: 72 h, B104-1-1 cells, 3 days
Text: Antiproliferative Properties of Tyrosine Kinase Inhibitors IC50 (nM)
B104-1-1—NIH-3T3 mouse fibroblasts transfected by the neu oncogene: Stern et al., Science, 234, pp. 321-324 (1987);

[5] = system: SK-BR-3 human breast carcinoma overexpressing erbB-2 and erbB-3; assay: Growth inhibition assay (antiproliferative), SK-BR-3; type: cell-based; settings: 72 h, SK-BR-3 cells, 3 days
Protocol: Cells (2×10^4) were seeded in 24-well plates (1.7×1.6 cm, flat bottom) in two mls of medium with or without various concentrations of drug. Plates were incubated for 3 days at 37° in a humidified atmosphere containing 5% CO2 in air. Cell growth was determined by cell count with a Coulter Model AM electronic cell counter (Coulter Electronics, Inc., Hialeah, Fla.).

[6] = EGF Receptor Tyrosine Kinase Inhibition, Table 1, values in nM, read-out: IC50 in EGFR
[7] = enzyme value repeated in the autophosphorylation table, read-out: EGFR IC50

T1 sequence (P00533 25-1210): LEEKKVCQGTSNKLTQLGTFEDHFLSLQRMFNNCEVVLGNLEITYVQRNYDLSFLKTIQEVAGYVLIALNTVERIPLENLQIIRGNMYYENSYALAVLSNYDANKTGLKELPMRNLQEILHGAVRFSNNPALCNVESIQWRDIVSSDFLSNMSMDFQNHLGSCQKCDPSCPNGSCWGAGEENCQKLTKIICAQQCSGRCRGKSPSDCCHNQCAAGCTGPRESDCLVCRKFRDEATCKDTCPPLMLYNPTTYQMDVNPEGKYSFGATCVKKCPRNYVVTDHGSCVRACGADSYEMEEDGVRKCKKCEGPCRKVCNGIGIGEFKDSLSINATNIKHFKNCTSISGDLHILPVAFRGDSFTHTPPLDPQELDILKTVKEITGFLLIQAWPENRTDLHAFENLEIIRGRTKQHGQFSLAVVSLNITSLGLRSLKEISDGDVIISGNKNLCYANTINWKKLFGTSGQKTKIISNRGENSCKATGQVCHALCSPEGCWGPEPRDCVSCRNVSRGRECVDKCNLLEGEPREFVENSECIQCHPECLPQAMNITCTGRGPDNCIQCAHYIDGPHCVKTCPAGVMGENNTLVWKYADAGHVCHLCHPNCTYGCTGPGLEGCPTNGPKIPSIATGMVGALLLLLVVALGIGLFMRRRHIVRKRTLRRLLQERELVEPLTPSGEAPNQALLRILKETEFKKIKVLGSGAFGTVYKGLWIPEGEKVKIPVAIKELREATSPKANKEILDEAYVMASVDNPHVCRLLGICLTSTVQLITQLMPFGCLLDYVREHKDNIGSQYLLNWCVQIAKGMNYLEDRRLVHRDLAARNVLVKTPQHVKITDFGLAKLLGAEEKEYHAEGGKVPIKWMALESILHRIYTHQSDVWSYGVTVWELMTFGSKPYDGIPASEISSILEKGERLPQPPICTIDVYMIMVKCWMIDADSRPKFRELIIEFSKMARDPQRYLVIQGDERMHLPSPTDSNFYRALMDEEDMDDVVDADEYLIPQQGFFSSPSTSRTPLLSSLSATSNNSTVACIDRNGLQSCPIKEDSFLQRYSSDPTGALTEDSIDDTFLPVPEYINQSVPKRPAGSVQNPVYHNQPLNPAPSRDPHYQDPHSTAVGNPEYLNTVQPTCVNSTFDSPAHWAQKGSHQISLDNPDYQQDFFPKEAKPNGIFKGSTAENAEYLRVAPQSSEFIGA
T2 sequence (P00533 25-1210): as above

SMILES | IC50 [1] | IC50 [2] | IC50 [3, 6] | also measured
Cn1c2ccccc2c2c(Nc3cccc(Br)c3)ncnc21 [Example 29, 4-(3-Bromoanilino)-9,N-methylindolo[2,3-d]pyrimidine.] | 109 nM | 1100 nM | 732 nM | –
Nc1ccc2sc3c(Nc4cccc(Br)c4)ncnc3c2c1 [Example 17, 8-Amino-4-(3-bromoanilino)benzo[b]thieno[3,2-d]pyrimidine] | – | 23 nM | – | IC50 [4]: 2900 nM
Brc1cccc(Nc2ncnc3cc4nccnc4cc23)c1 [Example 10, 4-(3-Bromoanilino)pyrazino[2,3-g]quinazoline] | 31 nM | ~700 nM | – | IC50 ([3]; read-out: EGFR IC50): 1.7 nM; IC50 ([3]; read-out: IC50 in EGFR): 1.7 nM
Brc1cccc(Nc2ncnc3c2[nH]c2ccccc23)c1 [Example 25, 4-(3-Bromoanilino)indolo[3,2-d]pyrimidine hydrochloride] | – | 1000 nM | – | –
Brc1cccc(Nc2ncnc3c2sc2ccccc23)c1 [Example 15, 4-(3-Bromoanilino)benzothieno[3,2-d]pyrimidine] | 170 nM | – | 1.8 nM | IC50 [3, 7]: 1.8 nM
Brc1cccc(Nc2ncnc3cc4[nH]cnc4cc23)c1 [Example 6, 4-(3-Bromoanilino)imidazolo[4,5-g]quinazoline] | – | 55 nM | – | IC50 [5]: 200 nM; IC50 [4]: 3200 nM
Brc1cccc(Nc2ncnc3[nH]c4ccccc4c23)c1 [Example 28, 4-(3-Bromoanilino)indolo[2,3-d]pyrimidine hydrochloride] | 630 nM | 10 nM | 31 nM | IC50 [3, 7]: 31 nM
Brc1cccc(Nc2ncnc3c2sc2ncsc23)c1 [Example 19, 4-(3-Bromoanilino)thiazolo[4′,5′; 4,5]thieno[3,2-d]pyrimidine] | – | ~1500 nM | – | –
Cn1cnc2cc3c(Nc4cccc(Br)c4)ncnc3cc21 [Example 8, 4-(3-Bromoanilino)-8,N-methylimidazolo[4,5-g]quinazoline] | – | 10 nM | – | –
Brc1cccc(Nc2ncnc3cc4ccccc4cc23)c1 [Example 1, 4-(3-bromoanilino)benzo[q]quinazoline hydrochloride] | 17 nM | – | – | IC50 [3]: < 0.1 nM; IC50 ([3]; read-out: EGFR IC50 nM): < 0.1 nM

From US6596726B1, “Tricyclic compounds capable of inhibiting tyrosine kinases of the epidermal growth factor receptor family” (Warner Lambert Company, priority 1994, dated 2003)
